Experimental data as given in ChEMBL document CHEMBL1201862, “PubChem BioAssay data set” (2004).
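Cultured in 96-well plates, cells were exposed to test compound for 48 hours across five concentrations. GI50 marks 50% less growth.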 Calls of active or inactive are those of the source. Cut-off read from the data, not from the text of the source: active = GI50 up to about 1.1 µM and inactive = higher.

Tests used:
Assay in all cases: growth of human tumour cells (NCI), 48 h
[1] = system: DU-145
[2] = system: SNB-78
[3] = system: HOP-18
[4] = system: M19-MEL
[5] = system: XF498
[6] = system: BT-549
[7] = system: LXFL 529
[8] = system: RXF 631
[9] = system: 786-0

Compound	GI50 [1]	GI50 [2]	GI50 [3]	GI50 [4]	GI50 [5]	GI50 [6]	GI50 [7]	GI50 [8]	GI50 [9]
COc1cccc(N2C(=O)C3c4[nH]c5ccc(C)cc5c4C4CCC(C(C)(C)C)CC4C3C2=O)c1 (stereo not given)	> 10 µM (inactive)	–	–	–	–	–	–	–	–
Cc1c2c(cc3c1[nH]c1ccccc13)C(c1ccc(F)cc1)=NCC2	–	1.81 µM (inactive)	2.88 µM (inactive)	1.21 µM (inactive)	1.67 µM (inactive)	–	–	–	–
CCCC[C@H]1[C@@H](OCOc2ccccc2)COC(=O)N1[C@H](C)c1ccccc1	21.5 µM (inactive)	–	–	–	–	19.7 µM (inactive)	–	–	–
Cc1ccccc1OCC(COC(=O)Nc1ccccc1)OC(=O)Nc1ccccc1 (stereo not given)	–	22.2 µM (inactive)	34.4 µM (inactive)	31.1 µM (inactive)	–	–	45.9 µM (inactive)	9.93 µM (inactive)	–
Cc1cccc(N2C(=O)C3c4[nH]c5ccc(C)cc5c4C4CCC(C(C)(C)C)CC4C3C2=O)c1 (stereo not given)	16.1 µM (inactive)	–	–	–	–	27.4 µM (inactive)	–	–	–
Cc1[nH]c(=O)[nH]c(=O)c1C(=O)N(CCO)Cc1ccccc1	> 100 µM (inactive)	–	–	–	–	> 100 µM (inactive)	–	–	–
CCOC(=O)C(O)(NC(=O)c1ccc(F)cc1)C(F)(F)F (stereo not given)	> 100 µM (inactive)	–	–	–	–	> 100 µM (inactive)	–	–	–
O=C(O)C1CCCCN1C(=O)c1ccccc1 (stereo not given)	–	> 100 µM (inactive)	> 100 µM (inactive)	> 100 µM (inactive)	> 100 µM (inactive)	–	> 100 µM (inactive)	> 100 µM (inactive)	> 100 µM (inactive)
CC(/C=N/N=C(N)N)=N\N=C(N)N	46.6 µM (inactive)	13.6 µM (inactive)	246 µM (inactive)	–	2.96 µM (inactive)	243 µM (inactive)	61.9 µM (inactive)	–	–
COc1cc(C(C)O)c(S(=O)(=O)CC(C)O)nn1 (stereo not given)	> 100 µM (inactive)	–	–	–	–	> 100 µM (inactive)	–	–	–
CC1=CC2c3cccc4[nH]cc(c34)CC2N(C)C1 (stereo not given)	–	> 100 µM (inactive)	23.4 µM (inactive)	> 100 µM (inactive)	9.75 µM (inactive)	–	–	–	–
CC1=C[C@]2(CC(C)C3C(CC4(C)C5CCC6C(C)(C)C(=O)CC[C@@]67C[C@@]57CC[C@]34C)O2)OC1=O (stereo not given in full)	–	23.2 µM (inactive)	6.43 µM (inactive)	–	13.9 µM (inactive)	–	7.52 µM (inactive)	3.54 µM (inactive)	–
CCOC(C)OC1CC(n2cc(C)c(=O)[nH]c2=O)OC1CO (stereo not given)	–	> 100 µM (inactive)	> 100 µM (inactive)	> 100 µM (inactive)	> 100 µM (inactive)	–	> 100 µM (inactive)	–	–
COC1C(O)CC(OC2CC(Oc3cc4cc5c(c(O)c4c(O)c3C)C(=O)[C@@H](OC3CC(OC4CC(OC6CC(C)(O)C(OC(C)=O)C(C)O6)C(O)C(C)O4)C(O)C(C)O3)[C@H]([C@H](OC)C(=O)[C@@H](O)[C@@H](C)O)C5)OC(C)C2OC(C)=O)OC1C (stereo not given in full) [CHROMOMYCIN]	2.48e-05 µM (active)	0.00337 µM (active)	0.00445 µM (active)	0.00337 µM (active)	0.00315 µM (active)	1.49e-05 µM (active)	–	–	–
Nc1ncc2c(n1)-c1ccccc1OC2	–	> 100 µM (inactive)	> 100 µM (inactive)	> 100 µM (inactive)	> 100 µM (inactive)	–	–	–	–
O=S(=O)(O)c1cc2ccc1/C=C\c1ccc(cc1S(=O)(=O)O)/N=N\c1ccc(c(S(=O)(=O)O)c1)/C=C\c1ccc(cc1S(=O)(=O)O)/N=N\2	–	> 100 µM (inactive)	> 100 µM (inactive)	> 100 µM (inactive)	> 88.3 µM (inactive)	–	–	–	–
COc1cc([C@@H]2c3cc4c(c(O[C@@H]5O[C@H]6CO[C@@H](C)O[C@H]6[C@H](O)[C@@H]5O)c3C[C@H]3COC(=O)[C@@H]32)OCO4)cc(OC)c1O	–	6.03 µM (inactive)	11.7 µM (inactive)	20.5 µM (inactive)	12.6 µM (inactive)	–	–	–	–
